Data set [1] deals with T1, UGT-mediated glucuronidation of molidustat (M1 formation) (Homo sapiens, UniProt P22309).
T1 sequence (P22309 26-533): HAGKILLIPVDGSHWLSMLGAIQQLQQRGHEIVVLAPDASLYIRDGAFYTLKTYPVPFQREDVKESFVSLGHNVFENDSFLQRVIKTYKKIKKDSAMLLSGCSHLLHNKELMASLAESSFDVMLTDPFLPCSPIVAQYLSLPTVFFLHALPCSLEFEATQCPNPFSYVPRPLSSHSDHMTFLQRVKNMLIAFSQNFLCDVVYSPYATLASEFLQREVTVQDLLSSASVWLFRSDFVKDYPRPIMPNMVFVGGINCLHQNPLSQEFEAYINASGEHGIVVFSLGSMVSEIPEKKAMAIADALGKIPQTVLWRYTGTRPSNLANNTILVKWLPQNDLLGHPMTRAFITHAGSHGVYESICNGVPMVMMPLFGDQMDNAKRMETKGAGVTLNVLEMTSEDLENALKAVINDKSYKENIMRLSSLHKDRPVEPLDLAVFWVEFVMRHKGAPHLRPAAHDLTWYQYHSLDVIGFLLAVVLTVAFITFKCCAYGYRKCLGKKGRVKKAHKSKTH
Kind of data set: Inhibition of M1 formation from molidustat in pooled human liver microsomes. It counts as in vitro ADME. The settings on record: human, pooled human liver microsomes, probe molidustat 5 µmol/L (formation of M1), IC50, pooled HLMs 0.3 mg/mL, N=1, Table 1. On the technique in general: Liver microsomes are vesicles of endoplasmic reticulum, rich in cytochrome P450 enzymes.

The test system of data set [2] is molidustat glucuronidation (clearance). Description: In vitro-in vivo scaling: predicted increase in molidustat AUC. More on the design: species or system human. The settings on record: fm 0.9; unbound hepatic inlet concentration, ka 0.1 min^−1.
The format of data set [3] is in vivo, human. Particulars: for t max: n = 13, median and range.
The mark [4] stands for this setting: (Molidustat + atazanavir)/molidustat, ANOVA.

“And” between values parts separate entries of the source, which are not always exact repeats. Equal entries are not always repeated. Where two headings read alike, the source gives them in different places.

For `Oc1cc(O)c2c(c1)O[C@H](c1cc(O)c(O)c(O)c1)[C@H](O)C2` [(‐)‐Epigallocatechin], the IC50 (commonly the concentration that gives 50% inhibition) at 30 min in data set [1] worked out at 5.1 µM.
Regarding `C[C@]12CC[C@@H](O)C[C@@H]1CC[C@@H]1[C@@H]2CC[C@]2(C)C(=O)CC[C@@H]12` [Androsterone], in data set [1], half-maximal inhibition (IC50 at 30 min) required 44 µM.
Turning to `COc1ccc(CCN2CCC(Nc3nc4ccccc4n3Cc3ccc(F)cc3)CC2)cc1` [Astemizole], the IC50 at 30 min in data set [1] stood at 23.5 µM.
Regarding `COC(=O)N[C@H](C(=O)N[C@@H](Cc1ccccc1)[C@@H](O)CN(Cc1ccc(-c2ccccn2)cc1)NC(=O)[C@@H](NC(=O)OC)C(C)(C)C)C(C)(C)C` [Atazanavir], in data set [2], the “AUCRinlet, ka 0.1 min^−1 (estimated increase in molidustat AUC)” value is on record as “more than fivefold”.
The compound `CC(C)=CCC/C(C)=C/COc1c2ccoc2cc2oc(=O)ccc12` [Bergamottin] yielded a concentration for half-maximal inhibition (IC50) at 30 min in data set [1] of 14.8 µM.
In the case of `C=CC1=C(C)/C(=C/c2[nH]c(Cc3[nH]c(/C=C4\NC(=O)C(C)=C4C=C)c(C)c3CCC(=O)O)c(CCC(=O)O)c2C)NC1=O` [Bilirubin], half-maximal inhibition in data set [1] (IC50 at 30 min) required 1.5 µM.
Same read-out and setting: the result for `COc1ccccc1OCCNCC(O)COc1cccc2[nH]c3ccccc3c12` (centres unmarked) [Carvedilol] reads 2.9 µM.
In the case of `Cc1ccc(-c2cc(C(F)(F)F)nn2-c2ccc(S(N)(=O)=O)cc2)cc1` [Celecoxib], inhibition in data set [1] was half-maximal at 10.6 µM (IC50 at 30 min).
The same measure, in the same setting: as for `COc1cc(N)c(Cl)cc1C(=O)NC1CCN(CCCOc2ccc(F)cc2)CC1OC` (centres unmarked) [Cisapride], the figure is 4.1 µM; as for `Clc1ccccc1C(c1ccccc1)(c1ccccc1)n1ccnc1` [Clotrimazole], 10.2 µM.
In data set [1], `COc1cc(/C=C/C(=O)CC(=O)/C=C/c2ccc(O)c(OC)c2)ccc1O` [Curcumin] registered a half-inhibitory concentration (IC50) at 30 min of 2.2 µM.
On the same count and under the same terms, the result for `O=c1c(-c2ccc(O)cc2)coc2cc(O)ccc12` [Daidzein] reads 6.8 µM; that for `Cc1nc(Nc2ncc(C(=O)Nc3c(C)cccc3Cl)s2)cc(N2CCN(CCO)CC2)n1` [Dasatinib], 1.4 µM; that for `O=C(O)Cc1ccccc1Nc1c(Cl)cccc1Cl` [Diclofenac], 38.2 µM.
In data set [1], `O=C(O)c1cc(-c2ccc(F)cc2F)ccc1O` [Diflunisal] registered an IC50 at 30 min of 75.6 µM.
`COc1cccc2c1C(=O)c1c(O)c3c(c(O)c1C2=O)C[C@@](O)(C(=O)CO)C[C@@H]3O[C@H]1C[C@H](N)[C@H](O)[C@H](C)O1` [Doxorubicin]: in data set [1], inhibition was half-maximal at 40.4 µM (IC50 at 30 min).
For the compound `O=C1Nc2ccc(Cl)cc2[C@@](C#CC2CC2)(C(F)(F)F)O1` [Efavirenz], in data set [1], the IC50 at 30 min was found to be 8 µM.
As to `C#Cc1cccc(Nc2ncnc3cc(OCCOC)c(OCCOC)cc23)c1` [Erlotinib], the 50% inhibitory concentration (IC50) at 30 min in data set [1] was found to be 0.13 µM. In addition, the “AUCRinlet, ka 0.1 min^−1 (estimated increase in molidustat AUC)” value in data set [2] is reported as “more than fivefold”.
For `CO[C@H]1C[C@@H]2CC[C@@H](C)[C@@](O)(O2)C(=O)C(=O)N2CCCC[C@H]2C(=O)O[C@H]([C@H](C)C[C@@H]2CC[C@@H](OCCO)[C@H](OC)C2)CC(=O)[C@H](C)/C=C(\C)[C@@H](O)[C@@H](OC)C(=O)[C@H](C)C[C@H](C)/C=C/C=C/C=C/1C` [Everolimus], the IC50 at 30 min in data set [1] came to 4.5 µM.
With `Cc1nc(-c2ccc(OCC(C)C)c(C#N)c2)sc1C(=O)O` [Febuxostat], in data set [1], it took 7.2 µM to reach half-maximal inhibition (IC50 at 30 min).
In the case of `COc1cc2ncnc(Nc3ccc(F)c(Cl)c3)c2cc1OCCCN1CCOCC1` [Gefitinib], in data set [1], the IC50 at 30 min worked out at 1.8 µM.
Compound `O=c1c(-c2ccc(O)cc2)coc2cc(O)cc(O)c12` [Genistein] displayed an IC50 at 30 min in data set [1] of 2.3 µM.
As for `COc1ccc(Cl)cc1C(=O)NCCc1ccc(S(=O)(=O)NC(=O)NC2CCCCC2)cc1` [Glibenclamide], in data set [1], the 50% inhibitory concentration (IC50) at 30 min was 6.3 µM.
With `CC(C)(C)NC(=O)[C@@H]1CN(Cc2cccnc2)CCN1C[C@@H](O)C[C@@H](Cc1ccccc1)C(=O)N[C@H]1c2ccccc2C[C@H]1O` [Indinavir], the 50% inhibitory concentration (IC50) at 30 min in data set [1] came to 3 µM.
On to `CCC(C)n1ncn(-c2ccc(N3CCN(c4ccc(OCC5COC(Cn6cncn6)(c6ccc(Cl)cc6Cl)O5)cc4)CC3)cc2)c1=O` (centres unmarked) [Itraconazole], for which, in data set [1], 1.2 µM corresponded to half-maximal inhibition (IC50 at 30 min).
For `CC(=O)N1CCN(c2ccc(OCC3COC(Cn4ccnc4)(c4ccc(Cl)cc4Cl)O3)cc2)CC1` (centres unmarked) [Ketoconazole], inhibition in data set [1] was half-maximal at 6.1 µM (IC50 at 30 min).
Turning to `Cc1c(OCC(F)(F)F)ccnc1C[S+]([O-])c1nc2ccccc2[nH]1` (centres unmarked) [Lansoprazole], half-maximal inhibition in data set [1] (IC50 at 30 min) required 36.8 µM.
In turn, `CS(=O)(=O)CCNCc1ccc(-c2ccc3ncnc(Nc4ccc(OCc5cccc(F)c5)c(Cl)c4)c3c2)o1` [Lapatinib] registered an IC50 at 30 min in data set [1] of 2.5 µM.
Still for that read-out and setting: the result for `Cc1cccc(C)c1OCC(=O)N[C@@H](Cc1ccccc1)[C@@H](O)C[C@H](Cc1ccccc1)NC(=O)[C@H](C(C)C)N1CCCNC1=O` [Lopinavir] reads 1.3 µM.
Turning to `CC[C@H](C)C(=O)O[C@H]1C[C@@H](C)C=C2C=C[C@H](C)[C@H](CC[C@@H]3C[C@@H](O)CC(=O)O3)[C@H]21` [Lovastatin], the half-maximal inhibitory concentration (IC50) at 30 min in data set [1] was 10.5 µM.
Still for that read-out and setting: as for `CC[C@H](C)C(=O)O[C@H]1CCC=C2C=C[C@H](C)[C@H](CC[C@@H]3C[C@@H](O)CC(=O)O3)[C@H]21` [Mevastatin], the figure is 13.2 µM; as for `COCC(=O)O[C@]1(CCN(C)CCCc2nc3ccccc3[nH]2)CCc2cc(F)ccc2[C@@H]1C(C)C` [Mibefradil], 20.2 µM.
For the compound `Clc1ccc(COC(Cn2ccnc2)c2ccc(Cl)cc2Cl)c(Cl)c1` (centres unmarked) [Miconazole], the IC50 at 30 min in data set [1] was found to be 19.3 µM.
In data set [1], `Cc1ncc2n1-c1ccc(Cl)cc1C(c1ccccc1F)=NC2` [Midazolam] had an IC50 at 30 min of 11.1 µM.
The compound `CC#C[C@]1(O)CC[C@H]2[C@@H]3CCC4=CC(=O)CCC4=C3[C@@H](c3ccc(N(C)C)cc3)C[C@@]21C` [Mifepristone] yielded a half-maximal inhibitory concentration (IC50) at 30 min in data set [1] of 1.4 µM.
On to `CC(C)(O)c1ccccc1CC[C@@H](SCC1(CC(=O)O)CC1)c1cccc(/C=C/c2ccc3ccc(Cl)cc3n2)c1` [Montelukast], for which, in data set [1], half-maximal inhibition (IC50 at 30 min) was put at 0.49 µM.
`O=C1C[C@@H](c2ccc(O)cc2)Oc2cc(O)cc(O)c21` [Naringenin]: in data set [1], the IC50 at 30 min is 11.6 µM.
`CCc1nn(CCCN2CCN(c3cccc(Cl)c3)CC2)c(=O)n1CCOc1ccccc1` [Nefazodone] gave an IC50 at 30 min in data set [1] of 11.4 µM.
`Cc1c(O)cccc1C(=O)N[C@@H](CSc1ccccc1)[C@H](O)CN1C[C@H]2CCCC[C@H]2C[C@H]1C(=O)NC(C)(C)C` [Nelfinavir] registered an IC50 at 30 min in data set [1] of 1.5 µM.
Turning to `O=C(O)c1cccnc1Nc1cccc(C(F)(F)F)c1` [Niflumic acid], the IC50 at 30 min in data set [1] amounted to 14.6 µM.
With `COc1ccc2[nH]c([S+]([O-])Cc3ncc(C)c(OC)c3C)nc2c1` (centres unmarked) [Omeprazole], half-maximal inhibition in data set [1] (IC50 at 30 min) was put at 17.1 µM.
With `CC(=O)O[C@H]1C(=O)[C@@]2(C)[C@H]([C@H](OC(=O)c3ccccc3)[C@]3(O)C[C@H](OC(=O)[C@H](O)[C@@H](NC(=O)c4ccccc4)c4ccccc4)C(C)=C1C3(C)C)[C@]1(OC(C)=O)CO[C@@H]1C[C@@H]2O` [Paclitaxel], it took 10.8 µM to reach half-maximal inhibition in data set [1] (IC50 at 30 min).
Turning to `COc1ccnc(C[S+]([O-])c2nc3ccc(OC(F)F)cc3[nH]2)c1OC` (centres unmarked) [Pantoprazole], 19.7 µM corresponded to half-maximal inhibition in data set [1] (IC50 at 30 min).
`O=C(O)C[C@H](O)C[C@H](O)/C=C/c1c(C2CC2)nc2ccccc2c1-c1ccc(F)cc1` [Pitavastatin] gave an IC50 at 30 min in data set [1] of 14.8 µM.
As for `O=c1c(O)c(-c2ccc(O)c(O)c2)oc2cc(O)cc(O)c12` [Quercetin], it took 5.5 µM to reach half-maximal inhibition in data set [1] (IC50 at 30 min).
In data set [1], `CN(CCOc1ccc(CC2SC(=O)NC2=O)cc1)c1ccccn1` (centres unmarked) [Rosiglitazone] showed a concentration for half-maximal inhibition (IC50) at 30 min of 10.7 µM.
Still for that read-out and setting: as for `CCCc1nn(C)c2c(=O)[nH]c(-c3cc(S(=O)(=O)N4CCN(C)CC4)ccc3OCC)nc12` [Sildenafil], the figure is 46.2 µM; as for `CNC(=O)c1cc(Oc2ccc(NC(=O)Nc3ccc(Cl)c(C(F)(F)F)c3)cc2)ccn1` [Sorafenib], 0.32 µM; as for `O=C1C(CC[S+]([O-])c2ccccc2)C(=O)N(c2ccccc2)N1c1ccccc1` (centres unmarked) [Sulfinpyrazone], 31.4 µM.
`CC1=C(CC(=O)O)c2cc(F)ccc2/C1=C\c1ccc([S+](C)[O-])cc1` (centres unmarked) [Sulindac]: in data set [1], the half-maximal inhibitory concentration (IC50) at 30 min turned out to be 37.5 µM.
Take `CCN(CC)CCNC(=O)c1c(C)[nH]c(/C=C2\C(=O)Nc3ccc(F)cc32)c1C` [Sunitinib]: in data set [1], the IC50 at 30 min was 18.7 µM.
In turn, `C=CC[C@@H]1/C=C(\C)C[C@H](C)C[C@H](OC)[C@H]2O[C@@](O)(C(=O)C(=O)N3CCCC[C@H]3C(=O)O[C@H](/C(C)=C/[C@@H]3CC[C@@H](O)[C@H](OC)C3)[C@H](C)[C@@H](O)CC1=O)[C@H](C)C[C@@H]2OC` [Tacrolimus] returned an IC50 at 30 min in data set [1] of 0.7 µM.
`CCCc1nc2c(C)cc(-c3nc4ccccc4n3C)cc2n1Cc1ccc(-c2ccccc2C(=O)O)cc1` [Telmisartan]: in data set [1], it took 2.8 µM to reach half-maximal inhibition (IC50 at 30 min).
Regarding `COc1ccc(/C=C/C(=O)Nc2ccccc2C(=O)O)cc1OC` [Tranilast], the half-inhibitory concentration (IC50) at 30 min in data set [1] amounted to 1.7 µM.
Turning to Molidustat glucuronide [M1], the t max in data set [3] (25 mg molidustat + atazanavir 400 mg qd for 5 days) is recorded as 2.0 (1.5‐4.0) H. Besides, in data set [3] (25 mg molidustat alone), the t max is given as 2.0 (1.0‐3.0) H. For the same compound, in data set [3] (setting [4]), the “Point estimate parameter ratio, AUC” value is 0.85 and 0.8472; the “Point estimate parameter ratio, AUC(0‐tlast)” value is reported as 0.8470; the “Point estimate parameter ratio, C max” value was 0.80 and 0.8002. In addition, the “reduction in systemic exposure to the glucuronide M1 with atazanavir” value in data set [3] (human, in vivo) is on record as −15%. In data set [3] (relative to molidustat alone), the “exposure to M1 in the presence of atazanavir” value is given as “approximately 85%”.

Source of the values: PMC7983974 (Basic & Clinical Pharmacology & Toxicology, 2020).
